Assay results from patent publication US20060045892A1, “Cosmetic compositions” (priority 2004, published 2006).

System: skin redness, skin inflammation, irritation and skin aging
Experiment: Materials tested for usefulness in the present invention (improving skin appearance, reducing skin redness, inflammation, irritation)
Assay type: in vivo, humans
Conditions: topical; related materials tested

Row | Structure (SMILES) | usefulness (activity) in the present invention
1 | ClC1CCCCC1 [cyclohexyl chloride] | not to be useful
2 | CC1CCC(C(C)C)C(O)C1 (stereo not drawn) [menthol] | not to be useful
3 | C1CCCCC1 [cyclohexane] | not to be useful
4 | CC(=O)OC1CCCCC1 [cyclohexyl acetate] | not to be useful
5 | CC1(C)[C@H]2C[C@H]1[C@@](C)(O)[C@@H](O)C2 [(1R,2R,3S,5S-(−))-pinanediol] | do not work
6 | OC1CCCC1O (stereo not drawn) [1,2-cyclopentanediol] | do not work
7 | C1=CCCCC1 [cyclohexene] | not to be useful
8 | CC1(O)CCCCC1 [1-methylcyclohexanol] | not to be useful
9 | OCC1(CO)CC2C=CC1C2 (stereo not drawn) [5-norborene-2,2-dimethanol] | do not work
10 | OCCCCC1CCCCC1 [4-cyclohexyl-1-butanol] | not to be useful
11 | O=C(O)C1CCCCC1 [cyclohexyl carboxylic acid] | not to be useful

System: skin
Experiment: Skin irritation by the applied material
Assay type: in vivo, humans
Conditions: topical

Row | Structure (SMILES) | irritation (reddening) of the skin to which it is applied
12 | CC1CCC(C(C)C)C(O)C1 (stereo not drawn) [menthol] | can irritate
